From US20260176320A1, “MODULATORS OF G-PROTEIN COUPLED RECEPTORS” (priority 2018, published 2026)

Key:
GLP-1R = GLP-1R (Homo sapiens, UniProt P43220); experiment: HitHunter cAMP assay (GLP-1R); format: cell-based; conditions: Table 3A, cAMP; for EC50: EC50 GLP-1R/nM; for Emax: read-out: (Emax) GLP-1R
How it was run: (§1)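 Duplicate 22-point, 2-fold agonist titrations applied to receptor-expressing suspension cells in IBMX-containing HBSS; 30 min RT stimulation. Read: luminescent cAMP immunocompetition after O/N dark incubation.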

GIP-R = target: T1, GIP-R (Homo sapiens, UniProt P48546); experiment: HitHunter cAMP assay (GIP-R); format: cell-based; conditions: Table 3A, cAMP; for EC50: EC50 GIP-R/nM; for Emax: read-out: (Emax) GIP-R
T1 sequence (P48546 22-466): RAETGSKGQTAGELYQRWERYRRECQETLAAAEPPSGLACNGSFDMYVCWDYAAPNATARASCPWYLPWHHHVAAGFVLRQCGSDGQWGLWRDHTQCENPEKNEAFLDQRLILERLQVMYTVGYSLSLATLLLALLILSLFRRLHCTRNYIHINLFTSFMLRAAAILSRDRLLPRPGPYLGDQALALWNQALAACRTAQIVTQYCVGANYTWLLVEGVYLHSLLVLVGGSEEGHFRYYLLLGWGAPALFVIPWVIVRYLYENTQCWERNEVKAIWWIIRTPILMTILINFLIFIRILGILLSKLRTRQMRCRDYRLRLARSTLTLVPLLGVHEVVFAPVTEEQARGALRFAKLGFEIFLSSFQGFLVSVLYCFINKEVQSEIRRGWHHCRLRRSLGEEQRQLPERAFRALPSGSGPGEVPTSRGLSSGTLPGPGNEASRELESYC
How it was run: as §1

Sequence of GLP-1R (P43220 24-463): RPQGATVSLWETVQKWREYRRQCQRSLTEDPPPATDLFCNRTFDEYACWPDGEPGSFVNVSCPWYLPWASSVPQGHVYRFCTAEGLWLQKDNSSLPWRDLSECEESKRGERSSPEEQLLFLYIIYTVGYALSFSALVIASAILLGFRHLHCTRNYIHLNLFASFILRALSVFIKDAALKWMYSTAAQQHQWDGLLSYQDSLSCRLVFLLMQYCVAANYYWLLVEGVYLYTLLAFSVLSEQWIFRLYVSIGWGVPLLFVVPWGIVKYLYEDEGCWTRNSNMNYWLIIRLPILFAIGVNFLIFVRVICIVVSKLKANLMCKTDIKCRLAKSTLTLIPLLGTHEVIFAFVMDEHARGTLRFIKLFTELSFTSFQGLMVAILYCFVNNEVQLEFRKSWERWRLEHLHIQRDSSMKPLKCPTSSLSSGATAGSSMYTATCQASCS

CCCCCCCCCCCCCCCC(=O)N[C@@H](CCC(=O)NCCCC[C@H](NC(=O)[C@H](CO)NC(=O)[C@@H]1CCCN1C(=O)[C@@H]1CCCN1C(=O)[C@@H]1CCCN1C(=O)[C@H](C)NC(=O)CNC(=O)[C@H](CO)NC(=O)[C@H](CO)NC(=O)[C@@H]1CCCN1C(=O)CNC(=O)CNC(=O)[C@H](C)NC(=O)[C@H](CC(C)C)NC(=O)[C@H](CC(C)C)NC(=O)[C@H](Cc1c[nH]c2ccccc12)NC(=O)[C@H](CC(N)=O)NC(=O)[C@@H](NC(=O)[C@H](Cc1ccccc1)NC(=O)[C@H](CCC(=O)O)NC(=O)C(C)(C)NC(=O)[C@H](C)NC(=O)[C@H](C)NC(=O)[C@H](CCC(N)=O)NC(=O)[C@H](CCCCN)NC(=O)[C@H](CC(=O)O)NC(=O)[C@H](CC(C)C)NC(=O)[C@H](Cc1ccc(O)cc1)NC(=O)[C@@H](NC(=O)[C@H](CO)NC(=O)[C@H](Cc1ccc(O)cc1)NC(=O)[C@H](CC(=O)O)NC(=O)[C@H](CO)NC(=O)[C@@H](NC(=O)[C@H](Cc1ccccc1)NC(=O)[C@@H](NC(=O)CNC(=O)[C@H](CCC(=O)O)NC(=O)CSCC(=O)NCCN1C(=O)[C@H]2CC[C@@H]1C2)[C@@H](C)O)[C@@H](C)O)[C@@H](C)CC)C(C)C)C(N)=O)C(=O)O [Compound 289] gave an EC50 (GLP-1R) of less than 0.1 nM, an Emax (GLP-1R) of 100% and an EC50 (GIP-R) of 10 to 100 nM. The Emax (GIP-R) was 20%.
Molecule CCCCCCCCCCCCCCCC(=O)N[C@@H](CCC(=O)NCCCC[C@H](NC(=O)[C@H](CO)NC(=O)[C@@H]1CCCN1C(=O)[C@@H]1CCCN1C(=O)[C@@H]1CCCN1C(=O)[C@H](C)NC(=O)CNC(=O)[C@H](CO)NC(=O)[C@H](CO)NC(=O)[C@@H]1CCCN1C(=O)CNC(=O)CNC(=O)[C@H](C)NC(=O)[C@H](CC(C)C)NC(=O)[C@H](CC(C)C)NC(=O)[C@H](Cc1c[nH]c2ccccc12)NC(=O)[C@H](CC(N)=O)NC(=O)[C@@H](NC(=O)[C@H](Cc1ccccc1)NC(=O)[C@H](CCC(=O)O)NC(=O)C(C)(C)NC(=O)[C@H](C)NC(=O)[C@H](C)NC(=O)[C@H](CCC(N)=O)NC(=O)[C@H](CCCCN)NC(=O)[C@H](CC(=O)O)NC(=O)[C@H](CC(C)C)NC(=O)[C@H](Cc1ccc(O)cc1)NC(=O)[C@@H](NC(=O)[C@H](CO)NC(=O)[C@H](Cc1ccc(O)cc1)NC(=O)[C@H](CC(=O)O)NC(=O)[C@H](CO)NC(=O)[C@@H](NC(=O)[C@H](Cc1ccccc1)NC(=O)[C@@H](NC(=O)CNC(=O)[C@H](CCC(=O)O)NC(=O)CSCC(=O)NCCN1C(=O)[C@@H]2C=C[C@H]1C2)[C@@H](C)O)[C@@H](C)O)[C@@H](C)CC)C(C)C)C(N)=O)C(=O)O [Compound 290] has an EC50 (GLP-1R) of less than 0.1 nM, an Emax (GLP-1R) of 100% and an EC50 (GIP-R) of 10 to 100 nM. It also gave an Emax (GIP-R) of 10%.
CCCCCCCCCCCCCCCC(=O)N[C@@H](CCC(=O)NCCCC[C@H](NC(=O)[C@H](CO)NC(=O)[C@@H]1CCCN1C(=O)[C@@H]1CCCN1C(=O)[C@@H]1CCCN1C(=O)[C@H](C)NC(=O)CNC(=O)[C@H](CO)NC(=O)[C@H](CO)NC(=O)[C@@H]1CCCN1C(=O)CNC(=O)CNC(=O)[C@H](C)NC(=O)[C@H](CC(C)C)NC(=O)[C@H](CC(C)C)NC(=O)[C@H](Cc1c[nH]c2ccccc12)NC(=O)[C@H](CC(N)=O)NC(=O)[C@@H](NC(=O)[C@H](Cc1ccccc1)NC(=O)[C@H](CCC(=O)O)NC(=O)C(C)(C)NC(=O)[C@H](C)NC(=O)[C@H](C)NC(=O)[C@H](CCC(N)=O)NC(=O)[C@H](CCCCN)NC(=O)[C@H](CC(=O)O)NC(=O)[C@H](CC(C)C)NC(=O)[C@H](Cc1ccc(O)cc1)NC(=O)[C@@H](NC(=O)[C@H](CO)NC(=O)[C@H](Cc1ccc(O)cc1)NC(=O)[C@H](CC(=O)O)NC(=O)[C@H](CO)NC(=O)[C@@H](NC(=O)[C@H](Cc1ccccc1)NC(=O)[C@@H](NC(=O)CNC(=O)[C@H](CCC(=O)O)NC(=O)CSCC(=O)NCCN1C(=O)[C@@H]2CC[C@H]1C2)[C@@H](C)O)[C@@H](C)O)[C@@H](C)CC)C(C)C)C(N)=O)C(=O)O [Compound 291] gave an EC50 (GLP-1R) of 0.1 to 1 nM, an Emax (GLP-1R) of 100% and an EC50 (GIP-R) of 1 to 10 nM. It also gave an Emax (GIP-R) of 60%.
